“Also recorded” adds a separate entry of the source.
Legend:
[1] = tested on: Jurkat T-cells; test: MS/MS mass spectroscopy of sugar-nucleotide expression in Jurkat cell lysates; assay type: cell-based, human
Protocol: Jurkat cell pellets (20×10^6) were resuspended in a cold 300 μl methanol:water (1:1) solution containing maltose as internal standard, vortexed for 10 seconds, and then pipetted into tubes containing 600 μl of chloroform:methanol (C:M) (3:2). Samples were vortexed for 1 minute, and then centrifuged at 14,000 rpm for 5 minutes at 4° C. Supernatants were collected, and an equal volume of C:M (1:1) was added, followed by a second extraction. The pooled aqueous fraction containing the hydrophilic metabolites was dried with a speedvac and stored at −80° C. Prior to injection, the samples were dissolved in 100 μl methanol:water (1:1). […] The metabolites were identified by their transitions in MS/MS, and quantified using the Analyte Software (SCIEX), which measured the area under the curve for the fragment ions corresponding to each parent ion. Quantities for the given substrates are graphed as pmole/min/10^6 cells.
JurkaT-cell pellets (20×10^6) were resuspended in cold 300 μl methanol:water (1:1) solution containing maltose as an internal standard, vortexed for 10 seconds, and then pipetted into tubes containing 600 μl of chloroform:methanol (C:M) (3:2). […] The metabolites were identified by their transitions in MS/MS, and quantified using the Analyte Software (SCIEX), which measured the area under the curve for the fragment ions corresponding to each parent ion. […]

[2] = tested on: Jurkat T-cells; test: LEA-FITC staining (poly-N-acetyllactosamine) of Jurkat T cells, FACS; assay type: cell-based, human; conditions: 3 days culture with supplement
Protocol: (§1) Mice used for L-PHA staining and quantitative RT-PCR were sex and age matched. […] 129/Sv mice were from an original Mgat5 gene targeted population (28). All other mice (SJL, NOD, Balb/c and B10.S) were obtained from Jackson Laboratories. […] Mouse and Jurkat cells were stained with L-PHA and LEA by first blocking with PBA (2% bovine serum albumin/0.01% azide/PBS) for 10 min at 4° C. and then incubated with 4 μg/ml of L-PHA-FITC (Vector Laboratories Inc.) or 20 μg/ml of LEA-FITC (Sigma) in PBA for 40 min at 4° C. and analyzed by a BD FACSCalihur (BD Pharmingen, San Diego, Calif.). The level of lectin binding was normalized by untreated control and calculated as a percentage (Sample intensity/control intensity-1) %.
(§2) Mice used for L-PHA staining and quantitative RT-PCR were sex and age matched. […] 129/Sv mice were from the original Mgat5 gene targeted population (28). All other mice (SJL, NOD, Balb/c and B10.S) were obtained from Jackson Laboratories. Mouse cells were stained with anti-CD4 (RM4-5), anti-CD8 (53-6.7), anti-CD45R (RA3-6B2) from eBioscience, and L-PHA (4 μg/ml) and LEA (20 μg/ml) from Sigma. […] Jurkat T-cells were cultured in either glutamine free RPMI 1640, 10% FBS, 10 mM/20 mM glucose or glucose/glutamine free DMEM base media supplemented with 10% FBS, 1.5 mM glucose. The indicated monosaccharides and/or metabolites were added daily except glucose which was added only at time zero.

[3] = tested on: Jurkat T-cells; test: L-PHA-FITC staining of Jurkat T cells cultured 3 days with monosaccharides, metabolites, Vitamin D3 or glycosidase inhibitors, FACS; assay type: cell-based, human; conditions: for Mgat5 N-glycans / β1,6GlcNAc-branched N-glycans expression (L-PHA staining): 3 days culture with supplement; for Mgat5-modified N-glycan expression: Jurkat T
Protocol: as §1, §2

[4] = tested on: PL/J and C57/B6 T cell cultures; test: L-PHA staining of mouse CD3+ T cells stimulated with anti-CD3, FACS; assay type: cell-based; conditions: for up-regulation of β1,6 GlcNAc branched N-glycans following stimulation: anti-CD3, minimal concentrations; for resting levels of β1,6 GlcNAc branched N-glycans: minimal concentrations
Protocol: as §1
Mice used for L-PHA staining and quantitative RT-PCR were sex and age matched. […] 129/Sv mice were from the original Mgat5 gene targeted population (28). All other mice (SJL, NOD, Balb/c and B10.S) were obtained from Jackson Laboratories. Mouse cells were stained with anti-CD4 (RM4-5), anti-CD8 (53-6.7), anti-CD45R (RA3-6B2) from eBioscience, and L-PHA (4 μg/ml) and LEA (20 μg/ml) from Sigma. […] The indicated monosaccharides and/or metabolites were added daily except glucose which was added only at time zero. […] The plateau or highest non-toxic dose is shown.

[5] = tested on: CHO cells; test: MALDI-TOF mass spectroscopy N-glycan profile of CHO cells; assay type: cell-based, Chinese Hamster; conditions: CHO cells treated with inhibitor
Protocol: This was done as a service at the Glycotechnology core facility, a resource of the Glycobiology Research and Training Center (GRTC) at the University of California, San Diego. CD3+ murine T cells (6×10^6), resting PBMCs from human controls and MS subjects (6×10^6) and CHO cells (10×10^6) were lysed with 1% SDS in 100 mM Tris pH 7.4, dialyzed to remove SDS, digested with trypsin to generate glycopeptides and treated with PNGaseF to release the N-glycans. To focus on early processing, N-glycans were desialylated by mild acid digestion prior to permethylation and MALDI-TOF mass spectroscopy. Monoisotopic peaks in the spectra were identified using GlycanMass and GlycoMod online software, with specific targeting of the N-glycan intermediates occurring during Golgi processing.
(§3) For comparison of N-glycan profiles of mice and human MS patients, CHO cells and CHO cells deficient at 5 different steps in the N-glycan pathway (Glucosidase I, Mannosidase I, MGAT1, Mannosidase II and MGAT5, FIG. 7A) were used to define relative L-PHA and Concanavillin A (ConA) lectin staining levels by FACS along with MALDI TOF N-glycan processing profiles. […] Indeed, a human infant with severe human glucosidase I deficiency accumulates Glc3Man (885 A ion in FIG. 16A, 21C) in the urine, a 4 hexose oligomer which derives from the Glucosidase I substrate Glc3Man9GlcNAc2 via endo-mannosidase activity (70). […] Such activity would produce Man8GlcNAc2, Man7GlcNAc2 and Man6GlcNAc2 structures and allow processing by Mannosidase I/II. Indeed, N-glycans of these 3 compositions accumulate in Glucosidase I/II inhibited cells when Mannosidase I activity is blocked with DMN (69). The larger structures Glc3Man9GlcNAc2 (mass 3008) and Glc3Man7GlcNAc2 (mass 2600) were also observed (67), however they were at lower relative intensities compared to the A ion group (FIG. 21C). […] Mixing CHO and Lec1 cells in various proportions confirmed that relative differences in expression of N-glycan structures can be determined using MALDI TOF (FIG. 21G).

[6] = tested on: CHO cells; test: L-PHA and ConA lectin staining of CHO cells by FACS; assay type: cell-based, Chinese Hamster; conditions: CHO cells treated with inhibitor
Text: as §3

O=c1ccn([C@@H]2O[C@H](CO)[C@@H](O)[C@H]2O)c(=O)[nH]1 [uridine]
intracellular UDP-GlcNAc levels [1]: dramatically raised
poly-N-acetyllactosamine expression (LEA staining) [2]: dose dependently increased
Mgat5 N-glycans / β1,6GlcNAc-branched N-glycans expression (L-PHA staining) ([3]; Jurkat T-cells): dose dependently increased

CC(=O)N[C@H]1C(OC(C)=O)O[C@H](COC(C)=O)[C@@H](OC(C)=O)[C@@H]1OC(C)=O (stereo partly drawn) [GlcNAc-tetra-acetate]
effective concentration to increase Mgat5-modified N-glycan expression, fold less than GlcNAc ([3]; Jurkat T-cells, 3 days): ~1000 fold

O[C@H]1[C@H](O)[C@@H](O)CN2CC[C@H](O)[C@H]12 [castanospermine, reference compound]
up-regulation of β1,6 GlcNAc branched N-glycans following stimulation ([4]; listed as CST): significantly attenuated
resting levels of β1,6 GlcNAc branched N-glycans ([4]; listed as CST): without affecting; also recorded: do not affect
Mgat5 glycan / β1,6GlcNAc-branched N-glycan expression after glycosidase inhibition (L-PHA) ([3]; Jurkat T cells, 3 days): dose dependent reduction; also recorded: reduced
up-regulation of β1,6 GlcNAc branched N-glycans following stimulation ([3]; Jurkat T cells, PMA/ionomycin or anti-CD3, minimal concentrations, listed as CST): significantly attenuated
resting levels of β1,6 GlcNAc branched N-glycans ([3]; Jurkat T cells, minimal concentrations, listed as CST): without affecting; also recorded: do not affect

N[C@H]1C(O)O[C@H](CO)[C@@H](O)[C@@H]1O (stereo partly drawn) [Glucosamine]
Mgat5-modified N-glycan expression ([3]; high concentrations): do the opposite; also recorded: declines
Mgat5-modified N-glycan expression ([3]; low concentrations): increase; also recorded: works

NC(=O)CC[C@H](N)C(=O)O [glutamine]
poly-N-acetyllactosamine expression (LEA staining) [2]: dose dependently increased
Mgat5 N-glycans / β1,6GlcNAc-branched N-glycans expression (L-PHA staining) ([3]; Jurkat T-cells): dose dependently increased

OC[C@H]1NC[C@@H](O)[C@@H](O)[C@@H]1O [deoxymannojirimycin]
up-regulation of β1,6 GlcNAc branched N-glycans following stimulation ([4]; listed as DMN): significantly attenuated
resting levels of β1,6 GlcNAc branched N-glycans ([4]; listed as DMN): without affecting; also recorded: do not affect
MALDI TOF profile of N-glycans (accumulated structures) [5]: dramatic increases in high mannose structures
β1,6GlcNAc-branched tetra-antennary N-glycans (mass 2969, structure G) [5]: diminished
high-mannose structures as seen by ConA staining [6]: increased
β1,6GlcNAc-branched N-glycan expression by L-PHA staining [6]: dramatic reductions

O=c1cc[nH]c(=O)[nH]1 [uracil]
effective concentration required to raise Mgat5-modified N-glycan expression, fold reduction compared to uridine ([3]; Jurkat T-cells, 3 days): ~100 fold

CC(=O)CC(=O)O [acetoacetate]
poly-N-acetyllactosamine expression (LEA staining) [2]: dose dependently increased
Mgat5 N-glycans / β1,6GlcNAc-branched N-glycans expression (L-PHA staining) ([3]; Jurkat T-cells): dose dependently increased

N [ammonia]
poly-N-acetyllactosamine expression (LEA staining) [2]: dose dependently increased
Mgat5 N-glycans / β1,6GlcNAc-branched N-glycans expression (L-PHA staining) ([3]; Jurkat T-cells): dose dependently increased

Source: patent publication US9775859B2, “Methods and compositions for preventing and treating a disease related to glycan dysregulation” (Sinai Health System, priority 2005, dated 2017)
